# Measurements: patent US20100173845A1, “USE OF FERTIRELIN AND DELTA-ENDORPHIN AS THERAPEUTIC AGENTS” (priority 2007, published 2010)
# Where a SMILES comes first, the peptide text is derived from it. Where no end group is shown, it is not given here. [ ]: non-standard residue; d: D form. pGlu = O=C1CC[C@@H](C(=O)O)N1
# Legend:
# [1] = test system: hepatitis B virus (HBV) ayw strain; assay: HBV assay, secreted HBV DNA by TaqMan PCR in HepG2-2.2.15 cells; assay type: cell-based; settings: 10 micrograms per ml; six days; HBV DNA in supernatant
# HCMV strain AD169 = assay: HCMV plaque formation assay in MRC-5 cells; settings: for inhibition of HCMV plaque formation as compared to the virus control experiment: 10 micrograms per ml, 7-10 days, MRC-5 cells
# murine spleen cells = assay: Th1/Th2 cytokine profiling assay (Ovalbumin-restimulated spleen cells, CBA kit); assay type: cell-based, Balb/c mice; settings: 10 micrograms per ml, 72 hours; for production of IL-5, decreased by: numbers are decreases; for production of IL-5, decreased by / production of IFN-y, induced/increased by / production of IL-2, induced/increased by / production of TNF-alpha, induced by (increase): words state no change; for production of IFN-y, induced/increased by / production of IL-2, induced/increased by / production of TNF-alpha, induced by (increase): numbers are increases
# Text: The Balb/c mice (originated in 1923, it is a popular strain and is used in many different research disciplines. Also classified as an inbred from the production of 20 or more successive brother-sister matings, the Balb/c mouse is albino and small in size) were immunized on Days 1, 15, and 29 with Ovalbumin (Ovalbumin is the main protein found in egg white, commonly used to stimulate an immunological reaction in test animals) in PBS (5 micrograms/injection). On day 50, spleens of the mice were harvested (3 weeks after last boost with Ovalbumin). Cells were cultured (2×10^5/well in triplicate) and incubated with culture medium or test peptides−10 micrograms per ml−for 30 min. Thereafter, additional Ovalbumin was added to the cells at 10 micrograms/ml for in vitro restimulation of the cells. 72 hours later, cell supernatants were harvested and assayed using the Becton Dickinson Mouse Th1/Th2 Cytokine CBA Kit. This kit can be used to measure Interleukin-2 (IL-2), Interleukin-4 (IL-4), Interleukin-5 (IL-5), Interferon-γ (IFN-γ), and Tumor Necrosis Factor-α (TNF-α) protein levels in a single sample.
# HUVEC = assay: Endothelial tube formation assay; assay type: cell-based, human; settings: 10 micrograms per ml; 20 hours
# Text: […] control wes vehicle only. […] Raw data were expressed as average tubule lenghs in pixels±standard deviation.
# [2] = test system: Primary Human endothelial cells (HUVEC); assay: Endothelial cell migration assay; assay type: cell-based; settings: 10 micrograms per ml; 22 hours
# Experimental: Thereafter, designated concentration of testing peptides−10 micrograms per ml−was added in duplicate wells.
Molecule,inhibition of HBV replication as compared to the virus control infection [1] [%],inhibition of HCMV plaque formation as compared to the virus control experiment (HCMV strain AD169) [%],"production of IL-4, decreased by (murine spleen cells; decrease) [%]","production of IL-5, decreased by (murine spleen cells)","production of IFN-y, induced/increased by (murine spleen cells)","production of IL-2, induced/increased by (murine spleen cells)","production of TNF-alpha, induced by (increase) (murine spleen cells)",inhibition of the tube formation of human endothelial cells (HUVEC) [%],inhibition of the migration of human endothelial cells [2],"production of IL-4, induced/increased by (murine spleen cells; increase) [%]",antiviral activity of positive control compound (HCMV strain AD169; HCMV in MRC-5 cells)
YGGFMTSEKSQTPLVTLFKNAIIKNAY [Peptide 2],0,0.7,31.5,48.1%,did not significantly change,did not significantly change,did not significantly change,11,no effect,–,–
CCNC(=O)[C@@H]1CCCN1C(=O)[C@H](CCCNC(=N)N)NC(=O)[C@H](CC(C)C)NC(=O)CNC(=O)[C@H](Cc1ccc(O)cc1)NC(=O)[C@H](CO)NC(=O)[C@H](Cc1c[nH]c2ccccc12)NC(=O)[C@H](Cc1c[nH]cn1)NC(=O)[C@@H]1CCC(=O)N1 [Peptide 1] ([pGlu]HWSYGLRP-NHEt),47.1,2.1,–,did not significantly change,114.7%,168.2%,27.5%,11,26%,139.7,–
"Nc1nc(O)c2ncn(COC(CO)CO)c2n1 [Ganciclovir, reference compound]",–,–,–,–,–,–,–,–,–,–,expected levels of antiviral activity
